Experiment [1] concerns the target T1, Recombinant full-length human IDO1 (Homo sapiens, UniProt P14902).
T1 construct: Recombinant full-length human IDO1 with a N-terminal hexahistidine tag; hexahistidine (His6) (N); made in house; host or cells: E. coli
In words: IDO1 enzymatic assay (NFK quantified by LCMS). The experiment is classed as biochemical. Particulars: 2 nM enzyme, 5 μM L-tryptophan, pH6.5, 30 minutes pre-incubation at RT; mean values when measured multiple times; read-out: hIDO activity (IC50 in nM). The procedure: 1) Testing Compounds for IDO Inhibitory Activity in an IDO1 Enzymatic Assay:
Recombinant full-length human IDO1 with a N-terminal hexahistidine tag expressed in E. coli and purified to homogeneity is incubated at a final concentration of 2 nM in assay buffer consisting of 37.5 mM phosphate buffer at pH6.5 supplemented with 10 mM ascorbic acid, 0.45 μM methylene blue, 50U/ml catalase, 0.01% BSA, and 0.01% Tween 20 (protocol modified from Seegers et al, JBS 2014). Example compounds are serially diluted in DMSO, further diluted in phosphate buffer, and added to the enzyme at final concentrations ranging from 10 μM to 0.5 nM. The final DMSO concentration is 0.6%. Following a pre-incubation of 30 minutes at RT, the reaction is started by the addition of L-tryptophan at a final concentration of 5 μM in assay buffer. After 30 minutes of incubation at RT, 3 μL of the 20 μl reaction mixture are transferred to a 384 deep well plate containing 25 μL of deionized water. 100 μl of 200 nM L-Tryptophan-(indole-d5) in cold 100% methanol are added followed by a 10 minutes centrifugation at 3220×g at 4° C. An additional 75 μL of deionized water are then added followed by a 10 minutes centrifugation at 3220×g at 4° C. The product of the reaction N′-Formylkynurenine (NFK) is quantified by LCMS and normalized to the L-Tryptophan-(indole-d5) signal. Samples with 0.6% DMSO (0% effect) and a TDO/IDO inhibitor (100% effect) are used as control samples to set the parameters for the non-linear regression necessary for the determination of the half-maximal inhibitory concentration (IC50) for each compound. For each compound concentration the percentage of activity compared to 0% and 100% effect is calculated as average±STDEV (each concentration measured in duplicate). IC50 values and curves are generated with XLfit software (IDBS) using Dose-Response One Site model 203 (four parameter logistic curve model). The calculated IC50 values may fluctuate depending on the daily assay performance. Fluctuations of this kind are known to those skilled in the art. When compounds are measured multiple times, mean values are given.

The target of experiment [2] is T2, Recombinant human TDO comprising amino acids 19-407 (Homo sapiens, UniProt P48775).
T2 construct: Recombinant human TDO comprising amino acids 19-407 with a N-terminal hexahistidine tag; hexahistidine (His6) (N); made in house; host or cells: E. coli
The experiment in a line: TDO2 enzymatic assay (NFK quantified by LCMS). The class given is biochemical. Particulars: 15 nM enzyme, 200 μM L-tryptophan, pH7, 30 minutes pre-incubation at RT; mean values when measured multiple times; read-out: hTDO activity (IC50 in nM). The procedure:
2) Testing Compounds for TDO Inhibitory Activity in a TDO2 Enzymatic Assay:
Recombinant human TDO comprising amino acids 19-407 with a N-terminal hexahistidine tag expressed in E. coli and purified to homogeneity is incubated at a final concentration of 15 nM in assay buffer consisting of 75 mM phosphate buffer at pH7 supplemented with 100 μM ascorbic acid, 50U/ml Catalase, 0.01% BSA, and 0.01% Tween 20 (protocol modified from Seegers et al, JBS 2014). Example compounds are serially diluted in DMSO, further diluted in phosphate buffer, and added to the reaction mixture at final concentrations ranging from 10 μM to 0.5 nM. The final DMSO concentration is 0.6%. Following a pre-incubation of 30 minutes at RT, the reaction is started by the addition of L-tryptophan at a final concentration of 200 μM in assay buffer. After 30 minutes of incubation at RT, 3 μL of the reaction mixture are transferred to a 384 deep well plate containing 25 μL of deionized water. 100 μl of 200 nM L-Tryptophan-(indole-d5) in cold 100% methanol are added followed by a 10 minutes centrifugation at 3220×g at 4° C. An additional 75 μL of deionized water are then added followed by a 10 minutes centrifugation at 3220×g at 4° C. The product of the reaction N′-Formylkynurenine (NFK) is quantified by LCMS and normalized to the L-Tryptophan-(indole-d5) signal. Samples with 0.6% DMSO (0% effect) and a TDO/IDO inhibitor (100% effect) are used as control samples to set the parameters for the non-linear regression necessary for the determination of the half-maximal inhibitory concentration (IC50) for each compound. For each compound concentration the percentage of activity compared to 0% and 100% effect is calculated as average±STDEV (each concentration measured in duplicate). IC50 values and curves are generated with XLfit software (IDBS) using Dose-Response One Site model 203 (four parameter logistic curve model). The calculated IC50 values may fluctuate depending on the daily assay performance. Fluctuations of this kind are known to those skilled in the art. When compounds are measured multiple times, mean values are given.

Some results are limits rather than exact numbers.

These results are taken from US20200405696A1, “INHIBITORS OF INDOLEAMINE 2,3-DIOXYGENASE AND/OR TRYPTOPHAN 2,3-DIOXYGENASE” (IDORSIA PHARMACEUTICALS LTD, priority 2018, published 2020).

T2 sequence (P48775 19-406 limits assumed): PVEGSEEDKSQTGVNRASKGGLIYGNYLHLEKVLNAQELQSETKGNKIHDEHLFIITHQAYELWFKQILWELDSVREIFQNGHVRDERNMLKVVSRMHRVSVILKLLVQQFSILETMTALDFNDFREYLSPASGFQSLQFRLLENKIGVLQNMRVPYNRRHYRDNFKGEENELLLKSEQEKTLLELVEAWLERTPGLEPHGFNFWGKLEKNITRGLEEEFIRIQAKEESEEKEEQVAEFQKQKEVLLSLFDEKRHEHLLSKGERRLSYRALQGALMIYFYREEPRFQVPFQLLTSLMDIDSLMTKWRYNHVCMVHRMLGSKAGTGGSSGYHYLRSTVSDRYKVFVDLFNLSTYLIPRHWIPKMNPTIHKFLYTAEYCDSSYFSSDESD
T1 sequence (P14902 whole entry): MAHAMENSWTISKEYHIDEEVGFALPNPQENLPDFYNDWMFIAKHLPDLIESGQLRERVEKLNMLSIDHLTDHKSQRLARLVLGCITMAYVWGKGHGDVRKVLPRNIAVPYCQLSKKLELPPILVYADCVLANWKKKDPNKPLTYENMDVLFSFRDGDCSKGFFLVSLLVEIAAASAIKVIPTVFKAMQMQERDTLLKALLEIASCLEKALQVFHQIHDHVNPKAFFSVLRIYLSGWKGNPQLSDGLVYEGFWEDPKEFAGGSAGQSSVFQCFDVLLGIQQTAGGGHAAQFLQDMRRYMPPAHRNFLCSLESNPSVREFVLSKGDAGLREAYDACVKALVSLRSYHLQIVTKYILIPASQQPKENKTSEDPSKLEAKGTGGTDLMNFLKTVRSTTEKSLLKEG

Turning to `COc1ccc(-n2nnc(C(O)c3c(C4CC4)sc4cncn34)c2C(C)C)cc1` (racemic) [Example 280, rac-(2-Cyclopropyl-imidazo[5,1-b]thiazol-3-yl)-[5-isopropyl-1-(4-methoxy-phenyl)-1H-[1,2,3]triazol-4-yl]-methanol], the IC50 was 53.2 nM in experiment [1] and more than 10200 nM in experiment [2].

As for `CCc1sc2cncn2c1C(O)c1cn(-c2ccc(NC(=O)OC(C)(C)C)cc2)nn1` (racemic) [Example 234, rac-(4-{4-[(2-Ethyl-imidazo[5,1-b]thiazol-3-yl)-hydroxy-methyl]-[1,2,3]triazol-1-yl}-phenyl)-carbamic Acid Tert-Butyl Ester], the concentration for half-maximal inhibition (IC50) in experiment [1] is 36.7 nM; in experiment [2] it was 7940 nM.

Consider `N#Cc1cccc(-n2cc(C(O)c3c(C4CC4)sc4cncn34)nn2)c1` (racemic) [Example 18, rac-3-{4-[(2-Cyclopropyl-imidazo[5,1-b]thiazol-3-yl)-hydroxy-methyl]-[1,2,3]triazol-1-yl}-benzonitrile], for which the IC50 in experiment [1] was 9.32 nM; in experiment [2], more than 10200 nM.

As for `CCc1sc2cncn2c1C(O)c1cn(-c2ccc(NC(=O)OC)cc2)nn1` (racemic) [Example 49, rac-(4-{4-[(2-Ethyl-imidazo[5,1-b]thiazol-3-yl)-hydroxy-methyl]-[1,2,3]triazol-1-yl}-phenyl)-carbamic Acid Methyl Ester], the IC50 in experiment [1] was 10.9 nM; in experiment [2] it was 2110 nM.

Turning to `COc1ccc(-n2cc(C(O)c3c(C4CC4)sc4cncn34)nn2)nc1OC` (racemic) [Example 66, rac-(2-Cyclopropyl-imidazo[5,1-b]thiazol-3-yl)-[1-(5,6-dimethoxy-pyridin-2-yl)-1H-[1,2,3]triazol-4-yl]-methanol], the figures for the IC50 in experiment [1] and in experiment [2] were 200 nM and more than 10200 nM, respectively.

For the compound `CCc1cc(-n2cc(C(O)c3c(C4CC4)sc4cncn34)nn2)ccc1O` (racemic) [Example 232, rac-4-{4-[(2-Cyclopropyl-imidazo[5,1-b]thiazol-3-yl)-hydroxy-methyl]-[1,2,3]triazol-1-yl}-2-ethyl-phenol], the IC50 in experiment [1] was 40.1 nM; in experiment [2], more than 10200 nM.

`CC(C)(C)C(=O)Nc1ccc(-n2cc(C(O)c3c(C4CC4)sc4cncn34)nn2)cc1` (racemic) [Example 187, rac-N-(4-{4-[(2-Cyclopropyl-imidazo[5,1-b]thiazol-3-yl)-hydroxy-methyl]-[1,2,3]triazol-1-yl}-phenyl)-2,2-dimethyl-propionamide]: the 50% inhibitory concentration (IC50) in experiment [1] was 13.7 nM; in experiment [2], more than 10200 nM.

As for `CC1(COc2ccc(-n3cc(C(O)c4c(C5CC5)sc5cncn45)nn3)cc2)COC1` (racemic) [Example 144, rac-(2-Cyclopropyl-imidazo[5,1-b]thiazol-3-yl)-{1-[4-(3-methyl-oxetan-3-ylmethoxy)-phenyl]-1H-[1,2,3]triazol-4-yl}-methanol], the IC50 in experiment [1] is 11.2 nM; in experiment [2], more than 10200 nM.

In the case of `C=C(C)c1sc2cncn2c1C(O)c1cn(-c2ccc(OCCCO)c(Cl)c2)nn1` (racemic) [Example 301, rac-3-(2-Chloro-4-{4-[hydroxy-(2-isopropenyl-imidazo[5,1-b]thiazol-3-yl)-methyl]-[1,2,3]triazol-1-yl}-phenoxy)-propan-1-ol], the figures for the IC50 in experiment [1] and in experiment [2] were 25.1 nM and more than 10200 nM, respectively.

Regarding `COC(=O)Nc1ccc(-n2cc(C(O)c3c(C4CC4)sc4cncn34)cn2)cc1` (racemic) [Example 132, rac-(4-{4-[(2-Cyclopropyl-imidazo[5,1-b]thiazol-3-yl)-hydroxy-methyl]-pyrazol-1-yl}-phenyl)-carbamic Acid Methyl Ester], the half-inhibitory concentration (IC50) was found to be 18.2 nM in experiment [1] and 1770 nM in experiment [2].

Regarding `CS(=O)(=O)CCOc1ccc(-n2cc(C(O)c3c(C4CC4)sc4cncn34)nn2)cc1` (racemic) [Example 205, rac-(2-Cyclopropyl-imidazo[5,1-b]thiazol-3-yl)-{1-[4-(2-methanesulfonyl-ethoxy)-phenyl]-1H-[1,2,3]triazol-4-yl}-methanol], the IC50 in experiment [1] was 626 nM; in experiment [2], more than 10200 nM.

Turning to `OC(c1cn(-c2ccc(OC(F)(F)F)cc2)nn1)c1c(C2CC2)sc2cncn12` (racemic) [Example 31, rac-(2-Cyclopropyl-imidazo[5,1-b]thiazol-3-yl)-[1-(4-trifluoromethoxy-phenyl)-1H-[1,2,3]triazol-4-yl]-methanol], the values for the IC50 in experiment [1] and in experiment [2] were 108 nM and more than 10200 nM, respectively.

In the case of `Oc1c(F)cc(-n2cc(C(O)c3c(C4CC4)sc4cncn34)nn2)cc1F` (racemic) [Example 149, rac-4-{4-[(2-Cyclopropyl-imidazo[5,1-b]thiazol-3-yl)-hydroxy-methyl]-[1,2,3]triazol-1-yl}-2,6-difluoro-phenol], the IC50 was 3.8 nM in experiment [1] and more than 10200 nM in experiment [2].

For the compound `NS(=O)(=O)c1ccc(-n2cc(C(O)c3c(C4CC4)sc4cncn34)nn2)cc1` (racemic) [Example 235, rac-4-{4-[(2-Cyclopropyl-imidazo[5,1-b]thiazol-3-yl)-hydroxy-methyl]-[1,2,3]triazol-1-yl}-benzenesulfonamide], the IC50 is 24.3 nM in experiment [1] and more than 10200 nM in experiment [2].

For the compound `Oc1cc(F)c(-n2cc(C(O)c3c(C4CC4)sc4cncn34)nn2)cc1F` (racemic) [Example 331, rac-4-{4-[(2-Cyclopropyl-imidazo[5,1-b]thiazol-3-yl)-hydroxy-methyl]-[1,2,3]triazol-1-yl}-2,5-difluoro-phenol], the figures for the IC50 in experiment [1] and in experiment [2] were 4.55 nM and 7180 nM, respectively.

In the case of `CCc1sc2cncn2c1C(O)c1cn(-c2ccc(S(=O)(=O)N(CC)CC)cc2)nn1` (racemic) [Example 243, rac-N,N-Diethyl-4-{4-[(2-ethyl-imidazo[5,1-b]thiazol-3-yl)-hydroxy-methyl]-[1,2,3]triazol-1-yl}-benzenesulfonamide], the half-inhibitory concentration (IC50) in experiment [1] is 101 nM; in experiment [2], more than 10200 nM.

Consider `OC(c1cn(-c2ccccn2)nn1)c1c(C2CC2)sc2cncn12` (racemic) [Example 14, rac-(2-Cyclopropyl-imidazo[5,1-b]thiazol-3-yl)-(1-pyridin-2-yl-1H-[1,2,3]triazol-4-yl)-methanol], for which the IC50 in experiment [1] was 79.6 nM; in experiment [2], more than 10200 nM.

For `COc1ccc(-n2cc(C(O)c3c(C4CC4)sc4cncn34)nn2)cc1Br` (racemic) [Example 290, rac-[1-(3-Bromo-4-methoxy-phenyl)-1H-[1,2,3]triazol-4-yl]-(2-cyclopropyl-imidazo[5,1-b]thiazol-3-yl)-methanol], the half-maximal inhibitory concentration (IC50) in experiment [1] was 15.3 nM; in experiment [2], more than 10200 nM.

Broadly, the IC50 is the point on the concentration scale where inhibition reaches its midpoint.
